# Values quoted from earlier work in patent US20080146525A1 (priority 2006, published 2008).
# How the values were obtained:
# [1] = system: nerve growth factor
# [2] = administered orally
# [3] = animal models and humans
# [4] = system: extra-cellular acetylcholine and dopamine levels; details: versus compositions commonly used to treat Alzheimer's disease; rats
# [5] = healthy adolescents
# [6] = system: neurotransmitters; details: humans
# [7] = system: rats
structure (smiles),measurement,setting,value
C/C=C1\[C@H]2C=C(C)C[C@]1(N)c1ccc(=O)[nH]c1C2 [Huperzine-A],amount of nerve growth factor,[1],increase the amount of nerve growth factor
same,bioavailability,[2],good bioavailability
same,effect on memory deficits,[3],improves memory deficits
same,ability to increase extra-cellular acetylcholine and dopamine levels,[4],greater ability to increase extra-cellular acetylcholine and dopamine levels
same,memory and learning,[5],improve memory and learning
N[C@@H](Cc1ccc(O)cc1)C(=O)O [Tyrosine],neurotransmitters after oral administration,[6],increased of neurotransmitters
CC(=C(CCOC(=O)C(C)C)SSC(CCOC(=O)C(C)C)=C(C)N(C=O)Cc1cnc(C)nc1N)N(C=O)Cc1cnc(C)nc1N (stereo in doubt) [Sulbutiamine],memory effect,[7],memory enhancing effects
